# Literature values as cited in patent US6759057B1, “Methods and compositions using liposome-encapsulated non-steroidal anti-inflammatory drugs” (The Liposome Company, Inc., priority 1986, dated 2004).
# Tested on: rat stomach mucosa
# Settings: rats dosed with Prostaglandin E2
compound,measurement,value
CCCCC[C@H](O)/C=C/[C@H]1[C@H](O)CC(=O)[C@@H]1C/C=C\CCCC(=O)O [Prostaglandin E2],increase in the major gastric surface protective surfactant,2-6 fold
